{"source": "patent US20120329739A1", "about": "(priority 2010, published 2012)", "key": {"[1]": {"tested_on": "melan-A melanocytes", "type": "cell-based"}, "[2]": {"tested_on": "hair graying-induced mice (Mitf^mi-vit)", "conditions": "mouse, in vivo"}}, "data": [{"smiles": "O=c1c(-c2ccc(O)cc2)coc2c([C@@H]3O[C@H](CO)[C@@H](O)[C@H](O)[C@H]3O)c(O)ccc12", "note": "[puerarin, 8-C-β-D-glucopyranosyl-7-hydroxy-3-(4-hydroxyphenyl)-4H-1-benzopyran-4-one]", "values": [{"measurement": "concentration dependence of melanin synthesis promoting effect", "setting": "[1]", "value": "concentration-dependent"}, {"measurement": "melanin content relative to the negative control group", "setting": "[1]", "value": "the melanin content is higher than the negative control group"}, {"measurement": "concentration dependence of the effect on hair melanin content", "setting": "[2]", "value": "the effect increases as the concentration of puerarin increases"}]}]}
